Entries after “also recorded” stand apart in the source; their conditions may differ. Read-outs that look alike come from different tables or passages of the source.
What was measured:
NR2B1 (RXRα) = molecular target: T1, NR2B1 (RXRα) (Homo sapiens, UniProt P19793); assay: Gal4 hybrid reporter gene assay RXRα; type: cell-based; details: n=3
T1 construct: expressed in transfected cells; host or cells: HEK293T
Method: (§1) Reference ligands are listed in the methods section.
Five hours after transfection, the cells were incubated with the NR3 CG compound candidates at the recommended concentrations by changing the medium to Opti-MEM supplemented with penicillin (100 µ/mL) and streptomycin (100 µg/mL) additionally containing 0.1% DMSO and the respective test compound or 0.1% DMSO alone as untreated control. Firefly (reporter) and renilla (control) luminescence were measured after 14–16 h incubation using the Dual-Glo® Luciferase Assay System (Promega, Fitchburg, Wisconsin, USA; #E2980) according to manufacturer’s protocol on a Tecan Spark® 10M multimode microplate reader (Tecan Group AG, Männedorf, Switzerland). To obtain relative light units (RLU) firefly luminescence was divided by renilla luminescence and multiplied by 1000. Fold activation was obtained by dividing the mean RLU of a test sample by the mean RLU of the DMSO (0.1%) control. Experiments were performed in singlets in at least three biologically independent repeats.
Supplementary Figure 1. […] Compounds are labeled according
Supplementary Figure 2. […] Compounds are
representing the NR1, NR2, NR4 and NR5 families.
scanning fluorimetry (DSF).
a concentration of 20 µM.

NR3A1 (ERα) = details: cited from earlier work; for IC50: read-out: Potency [nM] IC50, NR3A1 (ERα)
[1] = cited from earlier work; for NR off-target at recom. conc.: known NR off-target at the recommended concentration; for NR off-target at recom. conc. / Other off-target at recom. conc.: ref Supplementary Table 1 (superscript references); for Other off-target at recom. conc.: known off-target outside the NR family at the recommended concentration; for Reason for exclusion: number of annotated off-targets: other targets with annotated bioactivities at ≤10 µM in previously published dataset
NR3C1 (GR) = details: cited from earlier work
HEK293T cells = assay: Evaluation of cytotoxicity (overall: growth-rate, metabolic activity, apoptosis, necrosis); type: cell-based; details: 24 h; for effects on growth-rate, metabolic activity and necrosis: HEK293T, budesonide (3 µM), others at tested concentration
Method: The selection of 40 CG candidates was acquired from commercial vendors (purity ≥95%) and applied to initial toxicity screening. Cytotoxicity was determined in HEK293T cells considering growth-rate, metabolic activity as well as apoptosis and/or necrosis induction to evaluate suitability of the compounds for CG application in cellular settings (Fig. 3a–d, Supplementary Fig. 1, Supplementary Data 1). The candidates were generally well tolerated at concentrations >>EC50/IC50 that we recommend for CG application with only four compounds showing mild toxic effects. […] In terms of cytotoxicity, all candidates thus appeared suitable for inclusion in an NR3 CG set.

NR3C3 (PR) = details: cited from earlier work; for IC50: (lit.), ref Supplementary Table 1, read-out: Potency [nM] IC50, NR3C3 (PR)
NR3C4 (AR) = details: cited from earlier work
NR3B2 (ERRβ) = details: ref Supplementary Table 1, cited from earlier work
NR1C3 (PPARγ) = molecular target: T2, NR1C3 (PPARγ) (Homo sapiens, UniProt P37231); assay: Gal4 hybrid reporter gene assay PPARγ; type: cell-based; details: n=3
T2 construct: expressed in transfected cells; host or cells: HEK293T
Method: as §1
HEK293T cells (ATCC, Manassas, Virgina, USA; #CRL-3216) were cultured to a maximal confluence of 70–80% in DMEM, high glucose, supplemented with 10% FCS, sodium pyruvate (1 mM), penicillin (100 U/mL), and streptomycin (100 μg/mL) at 37 °C and 5% CO2 (v/v), and seeded in clear 96-well plates (4 × 10^4 cells per well). After 20–24 h, medium was changed to Opti-MEM without supplements and the cells were transiently transfected using Lipofectamine™ LTX/Plus™ Reagents (Invitrogen, Carlsbad, California, USA; #15338100) according to the manufacturer’s protocol with pFR-Luc (reporter gene; Stratagene, Agilent Technologies, Santa Clara, California, USA; #219050), pRL-SV40 (control gene for normalization of transfection efficiency and cell growth; Promega, Fitchburg, Wisconsin, USA; #E2231) and one pFA-CMV-hNR-LBD clone coding for the hinge region and ligand binding domain (LBD) of the human NR of interest. […] Firefly (reporter) and renilla (control) luminescence were measured after 14–16 h incubation using the Dual-Glo® Luciferase Assay System (Promega, Fitchburg, Wisconsin, USA; #E2980) according to manufacturer’s protocol on a Tecan Spark® 10M multimode microplate reader (Tecan Group AG, Männedorf, Switzerland). To obtain relative light units (RLU) firefly luminescence was divided by renilla luminescence and multiplied by 1000. […]

T2 sequence (P37231 238-503 limits assumed): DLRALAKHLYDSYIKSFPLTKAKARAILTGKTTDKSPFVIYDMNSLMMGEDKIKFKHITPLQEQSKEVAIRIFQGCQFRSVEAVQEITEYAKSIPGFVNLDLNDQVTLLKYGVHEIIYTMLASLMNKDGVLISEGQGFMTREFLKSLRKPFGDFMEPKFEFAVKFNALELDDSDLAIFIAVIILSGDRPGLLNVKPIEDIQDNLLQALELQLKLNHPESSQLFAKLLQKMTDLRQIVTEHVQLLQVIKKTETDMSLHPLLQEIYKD
T1 sequence (P19793 227-458 limits assumed): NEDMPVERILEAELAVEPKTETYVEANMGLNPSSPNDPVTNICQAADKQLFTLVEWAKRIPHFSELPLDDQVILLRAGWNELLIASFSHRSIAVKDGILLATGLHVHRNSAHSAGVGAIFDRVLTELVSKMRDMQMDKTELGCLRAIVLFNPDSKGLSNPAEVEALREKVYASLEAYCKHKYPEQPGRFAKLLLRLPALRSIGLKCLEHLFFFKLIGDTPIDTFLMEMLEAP

## CC/C(=C(/c1ccc(/C=C/C(=O)O)cc1)c1ccc2[nH]ncc2c1)c1ccc(F)cc1Cl [ARN810]
NR2B1 (RXRα); 1 µM
  Activity on NR2B1 (RXRα): -0.29 mean log10(fold reporter gene activity)
NR3A1 (ERα); (lit.), ref Supplementary Table 1
  IC50: 6 nM
NR3A1 (ERα); ERα remaining (degrader), ref Supplementary Table 1
  rel. activity from literature, NR3A1 (ERα): % ERα remaining: 9%
[1]
  NR off-target at recom. conc.: NR3C1; also recorded: NR3C2; also recorded: NR3C3; also recorded: NR3C4
  Other off-target at recom. conc.: GABAA and DAT
  Reason for exclusion: number of annotated off-targets: > 5 off-targets

## Cc1ccc2c(NC[C@](O)(CC(C)(C)c3cc(F)cc4c3OCC4)C(F)(F)F)cccc2n1 [Mapracorat]
NR3C1 (GR); (lit.), ref Supplementary Table 1, read-out: Potency [nM] EC50, NR3C1 (GR)
  EC50: 1.6 ± 0.3 nM
NR3C1 (GR); transrepression
  rel. activity from literature, NR3C1 (GR): % transrepression: 89 ± 4%

## C[C@@H]1Cc2c([nH]c3ccccc23)[C@@H](c2c(F)cc(/C=C/C(=O)O)cc2F)N1CC(C)(C)F [AZD9496]
HEK293T cells
  effects on growth-rate, metabolic activity and necrosis: without relevant effects
NR3A1 (ERα)
  IC50: 0.28 ± 0.04 nM

## CC#C[C@]1(O)CC[C@H]2[C@@H]3CCC4=CC(=O)CCC4=C3[C@@H](c3ccc(N(C)C)cc3)C[C@@]21C [Mifepristone]
NR3C1 (GR); (lit.), ref Supplementary Table 1, read-out: Potency [nM] IC50, NR3C1 (GR)
  IC50: 0.8 ± 0.1 nM
NR3C1 (GR); rem. act. of DXM (dexamethasone)
  rel. activity from literature, NR3C1 (GR): % rem. act. of DXM: […]
NR3C3 (PR)
  IC50: […]
NR3C3 (PR); rem. act. of PGN (progesterone)
  rel. activity from literature, NR3C3 (PR): % rem. act. of PGN: […]
NR3C4 (AR)
  rel. activity from literature, NR3C4 (AR): % rem. act. of DHT: 25 ± 2%
NR3C4 (AR); read-out: Potency [nM] IC50, NR3C4 (AR), (lit.), ref Supplementary Table 1
  IC50: 5 ± 2 nM

## CC/C(=C(\c1ccc(O)cc1)c1ccc(OCCN(C)C)cc1)c1ccccc1 [(Z)-4-Hydroxytamoxifen]
NR3A1 (ERα)
  IC50: 2 ± 1 nM
NR3B2 (ERRβ); (lit.), read-out: Potency [nM] IC50, NR3B2 (ERRβ)
  IC50: 650 nM
[1]
  Other off-target at recom. conc.: PLD1 and PLD2

## COc1cc(/C=C(\C#N)C(=O)Nc2nnc(C(F)(F)F)s2)ccc1OCc1ccc(C(F)(F)F)cc1C(F)(F)F [XCT790]
NR1C3 (PPARγ); 1 µM, vs. DMSO ctrl
  Activity on NR targets outside NR3 family [mean log10(fold reporter gene activity)] NR1C3 (PPARγ): 0.75 log10(fold reporter gene activity)

## COc1ccc(-c2coc3cc(O)cc(O)c3c2=O)cc1 [Biochanin A]
NR1C3 (PPARγ); 10 µM
  Activity on NR1C3 (PPARγ): -0.56 mean log10(fold reporter gene activity)
NR2B1 (RXRα); 10 µM
  Activity on NR2B1 (RXRα): -0.68 mean log10(fold reporter gene activity)
[1]
  Reason for exclusion: number of annotated off-targets: > 5 off-targets

## C/C=C1\C(=O)C[C@H]2[C@@H]3CCC4=CC(=O)CC[C@]4(C)[C@H]3CC[C@]12C [Z-Guggulsterone]
NR3C3 (PR)
  IC50: 740 ± 220 nM
[1]
  NR off-target at recom. conc.: NR1H4; also recorded: NR1I2; also recorded: NR3A1; also recorded: NR3C1; also recorded: NR3C2
  Reason for exclusion: number of annotated off-targets: > 5 off-targets
NR3C4 (AR); read-out: Potency [nM] EC50, NR3C4 (AR), (lit.), ref Supplementary Table 1
  EC50: 660 ± 240 nM

## CCCC1O[C@@H]2C[C@H]3[C@@H]4CCC5=CC(=O)C=C[C@]5(C)[C@H]4[C@@H](O)C[C@]3(C)[C@]2(C(=O)CO)O1 (stereo partly shown) [Budesonide]
HEK293T cells
  effects on growth-rate, metabolic activity and necrosis: without relevant effects
[1]
  Reason for exclusion: number of annotated off-targets: > 5 off-targets

## CC/C(=C(/CC)c1ccc(O)cc1)c1ccc(O)cc1 [Diethylstilbestrol]
HEK293T cells; 0.3 µM
  Cytotoxicity in HEK293T cells: non-toxic

## CCN(CC)c1ccc(/C=N/NC(=O)c2ccc(O)cc2)cc1 [DY131]
NR3B2 (ERRβ)
  rel. activity from literature, NR3B2 (ERRβ): fold activation: 2 fold

— PMC11790914, “Chemogenomics for steroid hormone receptors (NR3)” (Communications Chemistry, 2025)
